Results reported in ChEMBL document CHEMBL1201862, “PubChem BioAssay data set” (2004).
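Compound exposure: 48 hours, 5 concentrations, 96-well plates. Here, GI50 denotes the concentration required for 50% inhibition of growth.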 Active and inactive are the calls of the source. No stated cut-off is given here; in the data, active = GI50 up to about 1.1 µM and inactive = higher.

Tests used:
Experiment in all cases: NCI-60 cell line screen, 48 h
SW-620 = test system: SW-620
HOP-62 = test system: HOP-62
SN12C = test system: SN12C
SF-539 = test system: SF-539
LXFL 529 = test system: LXFL 529
U-251 = test system: U-251
OVCAR-4 = test system: OVCAR-4
MDA-MB-231 = test system: MDA-MB-231
SK-OV-3 = test system: SK-OV-3
K562 = test system: K562
LOX IMVI = test system: LOX IMVI
A549 = test system: A549
SNB-75 = test system: SNB-75
SK-MEL-28 = test system: SK-MEL-28
SF-268 = test system: SF-268
Malme-3M = test system: Malme-3M
TK-10 = test system: TK-10
HCT-116 = test system: HCT-116
CCRF-CEM = test system: CCRF-CEM
M14 = test system: M14

SMILES	GI50 (SW-620)	GI50 (HOP-62)	GI50 (SN12C)	GI50 (SF-539)	GI50 (LXFL 529)	GI50 (U-251)	GI50 (OVCAR-4)	GI50 (MDA-MB-231)	GI50 (SK-OV-3)	GI50 (K562)	GI50 (LOX IMVI)	GI50 (A549)	GI50 (SNB-75)	GI50 (SK-MEL-28)	GI50 (SF-268)	GI50 (Malme-3M)	GI50 (TK-10)	GI50 (HCT-116)	GI50 (CCRF-CEM)	GI50 (M14)
COc1ccc(/C=C(\Cl)c2ccc(OC)c(OC)c2)cc1OC	> 100 µM (inactive)	> 82.8 µM (inactive)	> 100 µM (inactive)	> 100 µM (inactive)	> 100 µM (inactive)	> 100 µM (inactive)	> 67.6 µM (inactive)	> 100 µM (inactive)	> 100 µM (inactive)	> 100 µM (inactive)	> 100 µM (inactive)	> 100 µM (inactive)	> 100 µM (inactive)	> 100 µM (inactive)	> 100 µM (inactive)	> 100 µM (inactive)	> 100 µM (inactive)	> 100 µM (inactive)	> 100 µM (inactive)	> 100 µM (inactive)
CS(=O)(=O)OCCN(CCOS(C)(=O)=O)c1ccc(/C=N/c2ccc3oc(=O)ccc3c2)cc1	14.2 µM (inactive)	1.89 µM (inactive)	6.78 µM (inactive)	4.43 µM (inactive)	13.1 µM (inactive)	9.38 µM (inactive)	11.7 µM (inactive)	32.9 µM (inactive)	1.11 µM (active)	24.6 µM (inactive)	7.23 µM (inactive)	3.47 µM (inactive)	2.43 µM (inactive)	12.9 µM (inactive)	5.13 µM (inactive)	8.73 µM (inactive)	2.45 µM (inactive)	37.7 µM (inactive)	0.871 µM (active)	2.82 µM (inactive)
CSc1nc(NC2OCC(OC(C)=O)C(OC(C)=O)C2OC(C)=O)c(/N=C\C=N\c2c(NC3OCC(OC(C)=O)C(OC(C)=O)C3OC(C)=O)nc(SC)[nH]c2=O)c(=O)[nH]1 (stereo not given)	> 100 µM (inactive)	30.5 µM (inactive)	> 100 µM (inactive)	43.7 µM (inactive)	> 83.6 µM (inactive)	56.4 µM (inactive)	> 100 µM (inactive)	> 100 µM (inactive)	28.9 µM (inactive)	> 100 µM (inactive)	> 100 µM (inactive)	> 100 µM (inactive)	19.9 µM (inactive)	> 100 µM (inactive)	> 100 µM (inactive)	> 100 µM (inactive)	56.9 µM (inactive)	> 80.2 µM (inactive)	> 54.8 µM (inactive)	> 100 µM (inactive)
